Like-named read-outs stand apart in the source and are kept apart here. Positions of bridges follow the written chain, without caps; N, C: chain ends. Residues, ends and D or L forms follow the SMILES beside them.
Experiments:
[1] = system: hKv1.1 channel; assay: Whole-cell patch clamp, hKv1.1 channel currents; assay type: cell-based, human; details: 1 μM peptide, mean ± SE, n ≥ 3, SEM
Text: (§1) The pRc/CMV-hKv1.3 was kindly provided by Professor Stephan Grissmer (University of Ulm, Ulm, Germany) and Professor Olaf Pongs (Zentrum für Molekulare Neurobiologie der Universität Hamburg, Hamburg, Germany). The cDNAs encoding hKv1.1 and hKv1.2 (from Professor Stephan Grissmer, University of Ulm, Ulm, Germany) were subcloned into the vector pIRES2-EGFP (TaKaRa Clontech, Mountain View, CA, USA). The cDNAs encoding hKv1.6 were subcloned into the vector pcDNA 3.1(+) (TaKaRa Clontech, Mountain View, CA, USA). A QuikChange Site-Directed Mutagenesis Kit (Stratagene, La Jolla, CA, USA) was used to produce the mutants based on the wild-type hKv1.3 channel plasmids. All plasmids and their mutants were verified by DNA sequencing before the expression. The three channel chimeras were, respectively, named by hKv1.3-M1 (425DPTSGFS432 → 425ERESQFP432), hKv1.3-M2 (452HPV456 → 452VPT456) and hKv1.3-M3 (425DPTSGFS432 → 425ERESQFP432, 452HPV456 → 452VPT456).
(§2) In a 5% CO2 incubator at 37 °C, HEK293T cells were cultured in DMEM medium (Gibco, Grand Island, NY, USA) supplemented with 10% fetal bovine serum and 1% penicillin/streptomycin. Potassium channel plasmids and pEGFP-N1 were co-transfected into the HEK293 cells using the ExFect Transfection Reagent (Vazyme, Nanjin, China). After one day of transfection, the potassium currents were recorded, and the positive cells were selected based on the presence of GFP fluorescence.
(§3) Whole-cell current measurement and data acquisition were performed using an EPC-10 patch-clamp amplifier controlled by Pulse (HEKA Elektronik, Lambrecht, Germany). The potassium currents were recorded according to the recording protocol for the Kv1 channel, as described in previously published references. Peptides were dissolved in an external solution containing 0.01% BSA for electrophysiological experiments. […]

[2] = system: hKv1.2 channel; assay: Whole-cell patch clamp, hKv1.2 channel currents; assay type: cell-based, human; details: 1 μM peptide, mean ± SE, n ≥ 3, SEM
Text: as §1, §2, §3

[3] = system: hKv1.6 channel; assay: Whole-cell patch clamp, hKv1.6 channel currents; assay type: cell-based, human; details: 1 μM peptide, mean ± SE, n ≥ 3, SEM
Text: as §1, §2, §3

[4] = system: hKv1.3-M1 channel (turret domain of hKv1.3 substituted by hKv1.2 region); assay: Whole-cell patch clamp, chimeric hKv1.3-M1 channel currents; assay type: cell-based, human; details: mean ± SE, n ≥ 3, SEM
Protocol: In order to further investigate the effect of basic residue number on BmK-NSPK pharmacology, the activities of BmK-NSPK analogs were also tested on the Kv1.3 channel chimeras in this work. […] Based on the weak inhibition potencies of BmK-NSPK-7K and BmK-NSPK-8K towards hKv1.2 channel (Figure 5C,D), the work first constructed the chimeric hKv1.3-M1, in which the turret domain of hKv1.3 channel was substituted by the equivalent region of hKv1.2 channel (Figure 6A). Pharmacological experiments with 100 nM and 1 μM MeuKTX were able to inhibit 45.7 ± 7.9% and 82.8 ± 6.1% of hKv1.3-M1 channel currents, respectively (Figure 6B).
as §1, §2
(§4) Whole-cell current measurement and data acquisition were performed using an EPC-10 patch-clamp amplifier controlled by Pulse (HEKA Elektronik, Lambrecht, Germany). The potassium currents were recorded according to the recording protocol for the Kv1 channel, as described in previously published references. Peptides were dissolved in an external solution containing 0.01% BSA for electrophysiological experiments. The patch pipette solution contained 140 mM KF (Sigma, St. Louis, MC, USA), 2 mM MgCl2 (Sinopharm Chemical Reagent Co., Ltd., Shanghai, China), 1 mM EGTA (Sigma) and 10 mM HEPES (neoFroxx, Einhausen, Hessen, Germany) (pH adjusted to 7.4 with KOH (Sinopharm Chemical Reagent Co., Ltd., Shanghai, China)), and the bath solution contained 4.5 mM KCl, 160 Mm NaCl (Sinopharm Chemical Reagent Co., Ltd., Shanghai, China), 5 mM HEPES, 2 mM CaCl2 (Sinopharm Chemical Reagent Co., Ltd., Shanghai, China) and 1 mM MgCl2 (pH adjusted to 7.4 with NaOH (Sinopharm Chemical Reagent Co., Ltd., Shanghai, China)).
(§5) Graphing and data analysis were conducted using GraphPad Prism software (Version 8.0, San Diego, CA, USA), ClampFit software (version 10.2, Molecular Devices, Sunnyvale, CA, USA), and SigmaPlot software (version 12.0, IBM SPSS, Chicago, IL, USA). The dose–response relationship between the channel current and peptide inhibition was modeled by the modified Hill equation: Ipeptide/Icontrol = 1/{1 + [peptide]/IC50}, where Ipeptide represents the potassium current under peptide inhibition, Icontrol represents the peak current, IC50 is the half-maximal inhibition concentration and [peptide] represents the peptide concentration. The IC50 was obtained by fitting the Hill equation. Results are presented as mean ± SE, with each sample tested on at least three cells (n ≥ 3).

[5] = system: hKv1.3-M2 channel (filter region of hKv1.3 substituted by hKv1.2 region); assay: Whole-cell patch clamp, chimeric hKv1.3-M2 channel currents; assay type: cell-based, human; details: mean ± SE, n ≥ 3, SEM
Protocol: Apart from the chimeric hKv1.3-M1, this work further constructed the chimeric hKv1.3-M2 channel, in which the filter region of hKv1.3 channel was substituted by the equivalent region of hKv1.2 channel (Figure 6A). Pharmacological experiments 100 nM and 1 μM MeuKTX were able to inhibit 78.3 ± 4.9% and 95.9 ± 1.3% of hKv1.3-M2 channel currents, respectively, which indicated the minor effect of channel filter region on MeuKTX binding (Figure 6B). However, more significant effects were also observed for BmK-NSPK analogs with different numbers of basic residues.
as §1, §2, §4, §5

[6] = system: hKv1.3-M3 channel (turret, pore helix and filter region of hKv1.3 replaced by hKv1.2 regions); assay: Whole-cell patch clamp, chimeric hKv1.3-M3 channel currents; assay type: cell-based, human; details: mean ± SE, n ≥ 3, SEM
Text: as §1, §2, §4, §5

[7] = target: human Kv1.3 potassium channel (human) (UniProt P22001)
[8] = target: hKv1.1 channel (human) (UniProt Q09470)
[9] = target: hKv1.2 channel (human) (UniProt P16389)
[10] = target: hKv1.6 channel (human) (UniProt P17658)
[11] = target: human Kv1.3 potassium channel (human) (UniProt P22001); remark: listed apart in the source

Sequence of human Kv1.3 potassium channel (human) (P22001 whole entry): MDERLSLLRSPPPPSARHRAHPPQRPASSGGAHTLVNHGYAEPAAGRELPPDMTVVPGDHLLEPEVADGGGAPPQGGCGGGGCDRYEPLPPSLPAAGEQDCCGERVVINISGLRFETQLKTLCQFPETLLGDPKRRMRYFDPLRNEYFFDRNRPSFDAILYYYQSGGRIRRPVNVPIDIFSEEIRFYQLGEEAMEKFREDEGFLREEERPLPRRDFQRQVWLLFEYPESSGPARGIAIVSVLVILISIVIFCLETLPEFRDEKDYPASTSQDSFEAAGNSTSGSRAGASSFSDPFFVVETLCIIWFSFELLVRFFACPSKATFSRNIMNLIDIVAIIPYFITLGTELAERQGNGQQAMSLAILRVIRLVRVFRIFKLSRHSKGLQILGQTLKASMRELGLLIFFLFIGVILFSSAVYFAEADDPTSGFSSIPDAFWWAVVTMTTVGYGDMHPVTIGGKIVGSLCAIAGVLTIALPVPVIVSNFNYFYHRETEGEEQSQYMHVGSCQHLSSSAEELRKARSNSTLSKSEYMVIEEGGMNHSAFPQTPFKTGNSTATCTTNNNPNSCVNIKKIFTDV
Sequence of KTX-2 peptide (P45696 23-59): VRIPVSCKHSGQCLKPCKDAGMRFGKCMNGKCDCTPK
Sequence of hKv1.1 channel (human) (Q09470 whole entry): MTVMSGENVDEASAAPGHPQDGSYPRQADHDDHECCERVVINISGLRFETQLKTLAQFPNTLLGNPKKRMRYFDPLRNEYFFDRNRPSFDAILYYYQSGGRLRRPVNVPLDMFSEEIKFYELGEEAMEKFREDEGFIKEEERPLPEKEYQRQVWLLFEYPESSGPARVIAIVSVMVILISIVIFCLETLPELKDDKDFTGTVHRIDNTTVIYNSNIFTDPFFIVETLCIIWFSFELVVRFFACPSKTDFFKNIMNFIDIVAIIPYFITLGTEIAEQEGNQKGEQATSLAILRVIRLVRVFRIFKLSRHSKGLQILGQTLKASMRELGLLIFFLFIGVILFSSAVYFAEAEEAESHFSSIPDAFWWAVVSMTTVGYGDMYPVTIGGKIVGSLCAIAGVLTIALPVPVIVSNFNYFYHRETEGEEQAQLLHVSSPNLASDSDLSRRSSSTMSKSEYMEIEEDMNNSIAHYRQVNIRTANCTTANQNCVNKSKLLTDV
Sequence of hKv1.2 channel (human) (P16389 whole entry): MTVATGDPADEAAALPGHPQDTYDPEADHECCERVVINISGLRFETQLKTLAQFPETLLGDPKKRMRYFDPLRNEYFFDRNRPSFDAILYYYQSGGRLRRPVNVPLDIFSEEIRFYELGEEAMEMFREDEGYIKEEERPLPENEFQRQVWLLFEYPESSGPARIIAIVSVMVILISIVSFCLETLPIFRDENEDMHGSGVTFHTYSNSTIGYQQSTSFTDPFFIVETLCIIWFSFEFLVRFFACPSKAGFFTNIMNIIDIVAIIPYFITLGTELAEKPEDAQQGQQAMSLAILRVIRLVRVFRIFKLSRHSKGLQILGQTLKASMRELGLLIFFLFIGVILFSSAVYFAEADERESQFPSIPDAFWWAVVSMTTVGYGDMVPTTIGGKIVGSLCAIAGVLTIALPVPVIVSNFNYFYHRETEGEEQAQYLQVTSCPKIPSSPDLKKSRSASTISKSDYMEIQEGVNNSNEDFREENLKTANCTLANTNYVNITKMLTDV
Sequence of KTX-3 peptide (P59290 whole entry): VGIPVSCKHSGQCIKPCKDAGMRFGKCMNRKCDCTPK
Sequence of hKv1.6 channel (human) (P17658 whole entry): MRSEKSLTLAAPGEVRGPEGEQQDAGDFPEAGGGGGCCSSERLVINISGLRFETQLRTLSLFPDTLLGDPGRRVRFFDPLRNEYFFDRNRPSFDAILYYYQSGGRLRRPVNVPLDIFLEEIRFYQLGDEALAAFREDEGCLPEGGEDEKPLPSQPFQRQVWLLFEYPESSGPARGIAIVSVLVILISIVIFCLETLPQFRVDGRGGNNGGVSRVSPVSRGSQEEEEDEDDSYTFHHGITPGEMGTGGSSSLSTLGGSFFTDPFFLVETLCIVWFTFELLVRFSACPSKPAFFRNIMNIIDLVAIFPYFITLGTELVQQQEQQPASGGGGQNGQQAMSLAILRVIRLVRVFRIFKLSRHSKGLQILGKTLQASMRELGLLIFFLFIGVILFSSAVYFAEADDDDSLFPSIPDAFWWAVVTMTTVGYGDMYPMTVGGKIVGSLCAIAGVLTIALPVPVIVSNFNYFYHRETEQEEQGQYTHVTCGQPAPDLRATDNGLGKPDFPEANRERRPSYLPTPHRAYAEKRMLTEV

Compound: CC[C@H](C)[C@H](NC(=O)CNC(=O)[C@@H](N)C(C)C)C(=O)N[C@@H](CC(N)=O)C(=O)N[C@H](C(=O)N[C@@H](CCCCN)C(=O)N[C@H]1CSSC[C@@H]2NC(=O)[C@H](CCCCN)NC(=O)CNC(=O)[C@H](Cc3ccccc3)NC(=O)[C@H](CCCNC(=N)N)NC(=O)[C@H](CCSC)NC(=O)CNC(=O)[C@H](C)NC(=O)[C@H](CC(=O)O)NC(=O)[C@H](CCCCN)NC(=O)[C@@H]3CSSC[C@@H](C(=O)N[C@H](C(=O)N4CCC[C@H]4C(=O)N[C@@H](CCCCN)C(=O)NCC(=O)O)[C@@H](C)O)NC(=O)[C@H](CC(=O)O)NC(=O)[C@H](CSSC[C@H](NC(=O)[C@H](CCC(N)=O)NC(=O)CNC(=O)[C@H](CO)NC(=O)[C@H](Cc4c[nH]cn4)NC(=O)[C@H](CCCCN)NC1=O)C(=O)N[C@@H](CC(C)C)C(=O)N[C@@H](CCCCN)C(=O)N1CCC[C@H]1C(=O)N3)NC(=O)[C@H](CCCCN)NC(=O)CNC(=O)[C@H](CC(N)=O)NC(=O)[C@H](CCSC)NC2=O)C(C)C [BmK-NSPK-7K] (H-VGINVKCKHSGQCLKPCKDAGMRFGKCMNGKCDCTPKG-OH; disulfide 7-27, 13-32, 17-34 (inferred); N-terminus and C-terminus assumed)
- inhibition of hKv1.1 channel currents [1]: 84.1 ± 7.0%
- inhibition of hKv1.2 channel currents [2]: 9.2 ± 0.6%
- inhibition of hKv1.6 channel currents [3]: 79.2 ± 2.4%
- inhibition of hKv1.3-M1 channel currents ([4]; 100 nM peptide): 23.4 ± 3.4%
- inhibition of hKv1.3-M1 channel currents ([4]; 1 μM peptide): 78.8 ± 3.4%
- inhibition of hKv1.3-M2 channel currents ([5]; 100 nM peptide): 35.4 ± 6.7%
- inhibition of hKv1.3-M2 channel currents ([5]; 1 μM peptide): 72.9 ± 7.0%
- inhibition of hKv1.3-M3 channel currents ([6]; 100 nM peptide): 1.2 ± 0.21%
- inhibition of hKv1.3-M3 channel currents ([6]; 1 μM peptide): 7.4 ± 0.64%

Compound: KTX-3 peptide (from UniProt P59290 1-37)
- IC50 of inhibition of hKv1.3 channel currents (whole-cell patch clamp, HEK293T) [7]: 0.46 nM
- inhibition of hKv1.3 channel currents by 1 μM peptide (whole-cell patch clamp, HEK293T) [7]: 91.6%

Compound: CC[C@H](C)[C@H](NC(=O)CNC(=O)[C@@H](N)C(C)C)C(=O)N[C@@H](CC(N)=O)C(=O)N[C@H](C(=O)N[C@@H](CCCCN)C(=O)N[C@H]1CSSC[C@@H]2NC(=O)[C@H](CCCCN)NC(=O)CNC(=O)[C@H](Cc3ccccc3)NC(=O)[C@H](CCCNC(=N)N)NC(=O)[C@H](CCSC)NC(=O)CNC(=O)[C@H](C)NC(=O)[C@H](CC(=O)O)NC(=O)[C@H](CCCCN)NC(=O)[C@@H]3CSSC[C@@H](C(=O)N[C@H](C(=O)N4CCC[C@H]4C(=O)N[C@@H](CCCCN)C(=O)O)[C@@H](C)O)NC(=O)[C@H](CC(=O)O)NC(=O)[C@H](CSSC[C@H](NC(=O)[C@H](CCC(N)=O)NC(=O)CNC(=O)[C@H](CO)NC(=O)[C@H](Cc4c[nH]cn4)NC(=O)[C@H](CCCCN)NC1=O)C(=O)N[C@@H](CC(C)C)C(=O)N[C@@H](CCCCN)C(=O)N1CCC[C@H]1C(=O)N3)NC(=O)[C@H](CCCCN)NC(=O)CNC(=O)[C@H](CC(N)=O)NC(=O)[C@H](CCSC)NC2=O)C(C)C [MeuKTX, reference compound] (H-VGINVKCKHSGQCLKPCKDAGMRFGKCMNGKCDCTPK-OH; disulfide 7-27, 13-32, 17-34 (inferred); N-terminus and C-terminus assumed)
- inhibition of hKv1.1 channel currents [1]: 90.7 ± 1.1%
- inhibition of hKv1.2 channel currents [2]: 14.6 ± 2.6%
- inhibition of hKv1.6 channel currents [3]: 77.4 ± 2.7%
- inhibition of hKv1.3-M1 channel currents ([4]; 100 nM peptide): 45.7 ± 7.9%
- inhibition of hKv1.3-M1 channel currents ([4]; 1 μM peptide): 82.8 ± 6.1%
- inhibition of hKv1.3-M2 channel currents ([5]; 100 nM peptide): 78.3 ± 4.9%
- inhibition of hKv1.3-M2 channel currents ([5]; 1 μM peptide): 95.9 ± 1.3%
- inhibition of hKv1.3-M3 channel currents ([6]; 100 nM peptide): 3.9 ± 0.21%
- inhibition of hKv1.3-M3 channel currents ([6]; 1 μM peptide): 16.1 ± 2.0%

Compound: MeuKTX peptide
- IC50 of inhibition of hKv1.3 channel currents (whole-cell patch clamp, HEK293T) [7]: 2.63 nM
- inhibition of hKv1.1 channel currents by 1 μM peptide (whole-cell patch clamp, HEK293T) [8]: 90.7%
- inhibition of hKv1.2 channel currents by 1 μM peptide (whole-cell patch clamp, HEK293T) [9]: 14.6%
- inhibition of hKv1.6 channel currents by 1 μM peptide (whole-cell patch clamp, HEK293T) [10]: 77.4%

Compound: KTX-2 peptide (from UniProt P45696 23-59)
- IC50 of inhibition of hKv1.3 channel currents (whole-cell patch clamp, HEK293T) [7]: 0.32 nM
- inhibition of hKv1.3 channel currents by 1 μM peptide (whole-cell patch clamp, HEK293T) [7]: 94.9%

Compound: BmK-NSPK-I18K/I26K/K28M (peptide)
- inhibition of hKv1.3 channel currents by 1 μM peptide (whole-cell patch clamp, HEK293T) [11]: 26.5%

Compound: BmK-NSPK peptide
- inhibition of hKv1.3 channel currents by 1 μM peptide (whole-cell patch clamp, HEK293T) [7]: 2.3%
- inhibition of hKv1.1 channel currents by 1 μM peptide (whole-cell patch clamp, HEK293T) [8]: 1.2%
- inhibition of hKv1.2 channel currents by 1 μM peptide (whole-cell patch clamp, HEK293T) [9]: 1.7%
- inhibition of hKv1.6 channel currents by 1 μM peptide (whole-cell patch clamp, HEK293T) [10]: 5.4%

From PMC11819763, “Activity of Potassium Channel BmK-NSPK Inhibitor Regulated by Basic Amino Acid Residues: Novel Insight into the Diverse Peptide Pharmacology” (Molecules, 2025)
